Type in all cases: functional, cell-based
One test relates to A549. Nature of the test: Cytotoxicity against human A549 cells assessed as cell viability after 48 hrs by MTT assay. The note with it: A549, 48 h.
The next test concerns HOP-62. Nature of the test: Cytotoxicity against human HOP-62 cells assessed as cell viability after 48 hrs by MTT assay. The note with it: HOP-62, 48 h. For orientation: Tetrazolium dyes change colour on reduction, which living cells bring about.
The next test concerns NCI-H727. Nature of the test: Cytotoxicity against human NCI-H727 cells assessed as cell viability after 48 hrs by MTT assay. The note with it: NCI-H727, 48 h.

For `O=C(CCCCCCC(=O)Nc1ccc2nc3n(c(=O)c2c1)CCCC3)NO`, the IC50 (usually the concentration needed to halve the response being measured) in the test with A549 was determined as 16 µM.
Still for that read-out and setting: in the case of `O=C(/C=C/c1cccc(S(=O)(=O)Nc2ccc3nc4n(c(=O)c3c2)CCCCC4)c1)NO` it was 3 µM; in that of `O=C(CCCCCCCCC(=O)Nc1ccc2nc3n(c(=O)c2c1)CCCCC3)NO`, 11 µM.
Take `O=C(/C=C/c1ccc(CNc2ccc3nc4n(c(=O)c3c2)CCCCCC4)cc1)NO`: the half-maximal inhibitory concentration (IC50) was determined as 1.89 µM with A549, 1.95 µM in the test with HOP-62 and 1.78 µM with NCI-H727.
For `O=C(CCCCCC(=O)Nc1ccc2nc3n(c(=O)c2c1)CCCCC3)NO`, the IC50 in the test on A549 was determined as 11 µM.
On to `O=C(/C=C/c1ccc(CNc2ccc3nc4n(c(=O)c3c2)CCC4)cc1)NO`, for which the values for the IC50 in the test with A549, in the test on HOP-62 and in the test with NCI-H727 were 1.21 µM, 1.78 µM and 1.11 µM, respectively.
For `O=C(NO)c1ccc(CNc2ccc3nc4n(c(=O)c3c2)CCCCC4)cc1`, the IC50 with A549 is 10 µM.
On the same count and under the same terms, then `O=c1c2ccccc2nc2n1CCCCC2`, with 6 µM; and `O=C(CCCCCCC(=O)Nc1ccc2nc3n(c(=O)c2c1)CCC3)NO`, with 17 µM.
Same read-out and setting: then `O=C(CCCCCCC(=O)Nc1ccc2nc3n(c(=O)c2c1)CCCCC3)NO`, with 14 µM; and `O=C(CCCCCCCC(=O)Nc1ccc2nc3n(c(=O)c2c1)CCCCC3)NO`, with 12 µM.
On to `O=C(/C=C/c1ccc(CNc2ccc3nc4n(c(=O)c3c2)CCCC4)cc1)NO`, for which the concentration for half-maximal inhibition (IC50) in the test with A549 was 1.56 µM; in the test on HOP-62, 1.71 µM; in the test with NCI-H727 it was 1.34 µM.
`O=C(CCCCCCC(=O)Nc1ccc2nc3n(c(=O)c2c1)CCCCCC3)NO`: the IC50 with A549 was 22 µM.
For the molecule `O=C(NO)c1ccc(C(=O)Nc2ccc3nc4n(c(=O)c3c2)CCCCC4)cc1`, the concentration for half-maximal inhibition (IC50) in the test on A549 is 9 µM.

For the origin of these results see ChEMBL document CHEMBL5113502, “Accommodation of ring C expanded deoxyvasicinone in the HDAC inhibitory pharmacophore culminates into a tractable anti-lung cancer agent and pH-responsive nanocarrier” (Eur J Med Chem, 2022).
